Measured values as given in US20140178479A1, “Concentrated Felbamate Formulations for Parenteral Administration” (PEROSPHERE, INC., priority 2011, published 2014).

How the values were obtained:
[1] = cited from earlier work
[2] = supersaturated solution: remaining in solution after heating and cooling; type: physicochemical
Protocol: Felbamate was added at a concentration of up to 20 weight per volume percent to polyethylene glycol 300 and polyethylene glycol 400. Solutions were heated above 70° C. after which the felbamate dissolved.
Felbamate was added at a concentration of up to 10 weight per volume percent in 65 volume per volume percent polyethylene glycol 300, 20 volume per volume percent polyethylene glycol 400, and 15 volume per volume percent propylene glycol. In a separate experiment, felbamate was added at a concentration of up to 10 weight per volume percent in 65 volume per volume percent polyethylene glycol 300, 20 volume per volume percent polyethylene glycol 400, 10 volume per volume percent propylene glycol, and 5 volume per volume percent polyethylene glycol 600.
Solutions were heated above 70° C. after which the felbamate dissolved.
Fluorofelbamate was added at a concentration of 10 weight per volume percent to polyethylene glycol 300. Solutions were heated above approximately 80° C. after which the fluorofelbamate dissolved.

[3] = cited from earlier work; remark: listed apart in the source
[4] = injection of supersaturated solution into 37° C. phosphate buffered saline; type: physicochemical
Protocol: A supersaturated 10 weight per volume percent felbamate solution in PEG 300 was injected into 37° C. phosphate buffered saline. […] Additional felbamate supersaturated solution at the same concentration was added 10 microliters at a time without forming solid particles up to at least 50 microliters.

[5] = molecular target: CYP2C19 (Homo sapiens, UniProt P33261); settings: cited from earlier work
Chain of CYP2C19 (P33261 whole entry): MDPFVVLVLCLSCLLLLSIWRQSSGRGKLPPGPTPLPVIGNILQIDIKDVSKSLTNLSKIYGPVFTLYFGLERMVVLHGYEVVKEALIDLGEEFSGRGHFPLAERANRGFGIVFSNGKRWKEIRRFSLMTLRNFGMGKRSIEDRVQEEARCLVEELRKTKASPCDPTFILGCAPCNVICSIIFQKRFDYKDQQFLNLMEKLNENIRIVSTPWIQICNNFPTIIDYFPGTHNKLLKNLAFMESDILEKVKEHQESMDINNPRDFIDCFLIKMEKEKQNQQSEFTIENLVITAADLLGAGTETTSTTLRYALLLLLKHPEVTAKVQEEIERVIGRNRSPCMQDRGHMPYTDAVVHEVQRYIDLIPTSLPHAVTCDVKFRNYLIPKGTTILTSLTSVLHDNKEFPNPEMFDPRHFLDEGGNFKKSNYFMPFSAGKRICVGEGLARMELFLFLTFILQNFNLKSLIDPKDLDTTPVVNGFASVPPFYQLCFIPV

[6] = SEM imaging of precipitated microparticles; type: physicochemical
Protocol: Felbamate was dissolved in dimethyl sulfoxide to create a five weight per volume percent solution. The felbamate solution was introduced into one hundred times the volume of a one weight per volume percent polysorbate 20 aqueous solution stirred at 1,500 revolutions per minute using an overhead mixer equipped with an impeller blade. The resultant microparticles of felbamate were imaged using SEM. […] Under the same experimental conditions, Span 80 was substituted for polysorbate 20.
Felbamate was dissolved in glycerin heated above 120° C. to create a 5% weight per volume solution. The felbamate solution was introduced into one hundred times the volume of a one weight per volume percent polysorbate 20 aqueous solution stirred at 1,500 revolutions per minute using an overhead mixer equipped with an impeller blade. The resultant microparticles of felbamate were imaged using SEM.

SMILES | solubility in water [1] | time remained in solution ([2]; 10 w/v % in polyethylene glycol 300, heated above approx. 80° C., cooled to approx. 25°) | share of aplastic anemia cases that are fatal ([3]; chronic oral dosing) | aplastic anemia after a single administration ([3]; single administration) | solution state after heating or cooling ([2]; PEG 300 / PEG 400 sample heated or cooled to 40° C., 4° C., and −20° C. for 30 minutes, then returned to 25° C.) | concentration of samples that remained in solution ([2]; polyethylene glycol 300 and polyethylene glycol 400, heated above 70° C., cooled to room temperature approx. 25°) | time remained in solution ([2]; up to 10 w/v % in 65 v/v % PEG 300, 20 v/v % PEG 400, 10 v/v % propylene glycol, 5 v/v % PEG 600, approx. 25° C.) | time remained in solution ([2]; up to 10 w/v % in 65 v/v % PEG 300, 20 v/v % PEG 400, 15 v/v % propylene glycol, approx. 25° C.) | time remained in solution ([2]; up to approx. 12.5 weight per volume percent in polyethylene glycol 300 and polyethylene glycol 400, room temperature approx. 25°) | volume of additional supersaturated solution added without forming solid particles ([4]; 10 w/v % in PEG 300, added 10 microliters at a time to 37° C. phosphate buffered saline) | solid particles on injection ([4]; supersaturated 10 w/v % solution in PEG 300 injected into 37° C. phosphate buffered saline) | effect on CYP2C19 [5] | particle size by SEM ([6]; glycerin / polysorbate 20 microparticles compared with native powder) | particle form ([6]; same conditions, Span 80 substituted for polysorbate 20)
NC(=O)OCC(F)(COC(N)=O)c1ccccc1 [Fluorofelbamate] | less than one | at least 1 month |  |  |  |  |  |  |  |  |  |  |  | 
NC(=O)OCC(COC(N)=O)c1ccccc1 [Felbamate] | less than one |  | 30% | has not been shown to develop | remained in solution | ≤ 12.5 weight per volume percent | at least 1 day | at least 1 day | at least eight | at least 50 microliters | No solid particles were observed | inhibitor | hundreds of microns | formed crystals, which are unsuitable for injection
